Assay results reported in patent EP0075139A1 (priority 1981, dated 1983).

tested on: Plasmopara viticola; experiment: Efficacy against Plasmopara viticola on potted vine leaves (protective spray, greenhouse); format: in vivo; conditions: 0,025 %ige Spritzbrühe; potted vines "Müller-Thurgau"; infected 10 days after spraying; value given as 'beispielsweise' (for example)
From the text: Wirksamkeit gegen Plasmopara viticola
Blätter von Topfreben der Sorte "Müller-Thurgau" werden mit wäßriger Spritzbrühe, die 80 % Wirkstoff und 20 % Emulgiermittel in der Trockensubstanz enthält, besprüht. Um die Wirkungsdauer der Wirkstoffe beurteilen zu können, werden die Pflanzen nach dem Antrocknen des Spritzbelages 10 Tage im Gewächshaus aufgestellt. Erst dann werden die Blätter mit einer Zoosporenaufschwemmung von Plasmopara viticola (Rebenperonospora) infiziert. Danach werden die Reben zunächst für 16 Stunden in einer wasserdampfgesättigten Kammer bei 24°C und anschließend für 8 Tage in einem Gewächshaus mit Temperaturen zwischen 20 und 30 C aufgestellt. Nach dieser Zeit werden die Pflanzen zur Beschleunigung des Sporangienträgerausbruchs abermals für 16 Stunden in der feuchten Kammer aufgestellt. Dann erfolgt die Beurteilung des Ausmaßes des Pilzausbruches auf den Blattunterseiten.
Das Ergebnis des Versuches zeigt, daß beispielsweise die Verbindungen Nr. 1, 2, 11 und 12 bei Anwendung als 0,025 %ige Spritzbrühe eine bessere fungizide Wirkung (beispielsweise 100 %) zeigen als der bekannte Wirkstoff A (beispielsweise 90 %).

Going from `O=C1c2ccccc2C(=O)N1SC(Cl)(Cl)Cl` [Verbindung A, N-Trichlormethylthio-phthalimid] to `CC(=O)C(=O)N(c1c(C)ccc2ccccc12)C1CCOC1=O` (stereo not drawn) [Verbindung Nr. 1, N-(2-Methyl-1-naphthyl)-N-(alpha-butyro--gamma-lactonyl)-brenztraubensäure-amid], the “fungizide Wirkung” value rises from 90% to 100%.

tested on: Phytophthora infestans; experiment: not given; format: in vivo; conditions: 0,025 %ige Spritzbrühe; potted tomato "Große Fleischtomate"; assessed 5 days after infection; value given as 'beispielsweise' (for example)

Compared with `O=C1C2CC=CCC2C(=O)N1SC(Cl)(Cl)Cl` (stereo not drawn) [Verbindung B, N-Trichlormethylthio-tetrahydrophthalimid], `CC(=O)C(=O)N(c1c(C)ccc2ccccc12)C1CCOC1=O` (stereo not drawn) [Verbindung Nr. 1, N-(2-Methyl-1-naphthyl)-N-(alpha-butyro--gamma-lactonyl)-brenztraubensäure-amid] is higher in “fungizide Wirkung” value: 70% for the first, 90% for the second.

Going from `S=C([S-])NCCNC(=S)[S-].[Zn+2]` [Verbindung C, Zink-ethylen-1,2-bis-dithiocarbamat] to `COC(=O)C(C)N(C(=O)C(C)=NOCc1c(Cl)cccc1Cl)c1c(C)cccc1C` (stereo not drawn) [Verbindung Nr. 22, N-(2,6-Dimethyl-phenyl)-N-[(1-methoxycarbonyl)-1-ethyl]-2-[O-(2,6-dichlor-benzyl)-oximino]-brenztraubensäure-amid], the “fungizide Wirkung” value rises from 70% to 90%.
